Measurements: ChEMBL document CHEMBL1139916, “6-hydroxy to 6'''-amino tethered ring-to-ring macrocyclic aminoglycosides as probes for APH(3')-IIIa kinase” (2007)

Key:
Staphylococcus aureus = experiment: Growth inhibition of Staphylococcus aureus; assay type: functional
Escherichia coli = experiment: Growth inhibition of Escherichia coli; assay type: functional
[1] = Activity of bacterial APH(3')-3a kinase assessed high affinity phosphorylation
[2] = Activity of bacterial APH(3')-3a kinase assessed low affinity phosphorylation
[3] = Ratio of Kcat/Km of bacterial APH(3')-3a kinase-mediated high affinity phosphorylation
[4] = Ratio of Kcat/Km of bacterial APH(3')-3a kinase-mediated low affinity phosphorylation
[5] = Activity of bacterial APH(3')-3a kinase
[6] = Ratio of Kcat/Km of bacterial APH(3')-3a kinase

Row | SMILES | MIC (Staphylococcus aureus) [µg/mL] | MIC (Escherichia coli) [µg/mL] | Km [1] [µM] | Vmax [1] [µM/s] | kcat [1] [s⁻¹] | Km [2] [µM] | Vmax [2] [µM/s] | kcat [2] [s⁻¹] | kcat/Km [3] | kcat/Km [4] | Km [5] [µM] | Vmax [5] [µM/s] | kcat [5] [s⁻¹] | kcat/Km [6]
1 | N[C@H]1[C@H]2O[C@H]3[C@@H](O)[C@H](O[C@@H]4[C@@H](OCCCCCNC[C@H](O2)[C@@H](O)[C@@H]1O)[C@H](N)C[C@H](N)[C@H]4O[C@H]1O[C@H](CO)[C@@H](O)[C@H](O)[C@H]1N)O[C@@H]3CO | > 40 | > 10 | – | – | – | – | – | – | – | – | – | – | – | –
2 | NC[C@@H]1O[C@H](O[C@H]2[C@@H](O)[C@H](O[C@@H]3[C@@H](O)[C@H](N)C[C@H](N)[C@H]3O[C@H]3O[C@H](CO)[C@@H](O)[C@H](O)[C@H]3N)O[C@@H]2CO)[C@H](N)[C@@H](O)[C@@H]1O | – | – | 16.9 | 0.183 | 0.19 | 51.1 | 0.292 | 0.304 | 1.12 10^4/M/s | 5.95 10^3/M/s | – | – | – | –
3 | N[C@H]1[C@H]2O[C@H]3[C@@H](O)[C@H](O[C@@H]4[C@@H](OCCCCC(=O)NC[C@H](O2)[C@@H](O)[C@@H]1O)[C@H](N)C[C@H](N)[C@H]4O[C@H]1O[C@H](CO)[C@@H](O)[C@H](O)[C@H]1N)O[C@@H]3CO | > 40 | > 10 | – | – | – | – | – | – | – | – | 21.8 | 0.07 | 0.073 | 3.35 10^3/M/s
